Assay [1] concerns periodontal ligament cells. Description: Attachment and spread of periodontal ligament cells. The class given is cell-based. The conditions noted are these: for attachment and spread of cells from the periodontal ligament: compared with gingival fibroblasts. From the text: Cementum attachment protein (CAP) is a protein of molecular mass approximately 56 kDa present in cementum and specifically expressed by mineralized tissue-forming cells of the periodontium. […] The protein has sequences containing Gly-X-Y repeats typical of a collagen helix. SEQ ID NOS 1-5 are fragments of CAP. One 17-amino-acid peptide, SEQ ID NO 2, has 82% homology with a type XII collagen domain. […] Although another 19-amino-acid-long peptide (SEQ ID NO 3) has 95% homology to bovine al (I) collagen, two other peptides, SEQ ID NOS 4 and 5, are only 79% and 68% homologous.

A further assay concerns periodontal cells. The conditions noted are these: CAP-coated surfaces; Pitaru et al. 1995; cited from earlier work.

The values below come from patent US7071162B1, “Combined use of cementum attachment protein and cyclosporin a for improved attachment of dental and orthopedic implants” (priority 1997, dated 2006).

For the substance Cementum attachment protein [CAP], in assay [1] (bacterial collagenase digestion), the “capacity to promote attachment of periodontal cells after bacterial collagenase” value is given as “eliminate the capacity of CAP to promote attachment of periodontal cells”. Also, the “capacity to promote attachment of periodontal cells after chondroitinase ABC digestion” value in assay [1] (chondroitinase ABC digestion) is listed as “had no effect”. Moreover, the “attachment and spread of cells from the periodontal ligament” value in assay [1] is on record as “more efficiently than that of gingival fibroblasts”. In addition, in the assay on periodontal cells, the “migration and attachment of periodontal cells versus gingival fibroblasts” value is “migrate in response to and attach better to CAP-coated surfaces than do gingival fibroblasts”.

Take “type XIl collagen: collagen type with a domain 82% homologous to SEQ ID NO 2 of CAP [reference compound]”: in assay [1], the “attachment and spread of cells from the periodontal ligament” value was “does not promote the attachment of periodontal ligament cells”.
